13 molecules from patent publication US20220402862A1 (Intellia Therapeutics, Inc., priority 2019, published 2022) can be followed below.

Usually pKa stands for the pH at which an ionisable group is half protonated. Low readings indicate a stronger acid or weaker base, high ones a weaker acid or stronger base.

One data set concerns Transthyretin (TTR). Description: Serum TTR ELISA in mice after LNP dosing. The settings on record: guide G282 experiments; for Serum TTR % TSS: mouse serum TTR relative to TSS control; for Serum TTR: mouse serum, ELISA. The format is in vivo, CD-1 female mice. An outline of the steps: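 Serum mouse TTR was quantified by ELISA at 10,000-fold dilution for 0.1 mg/kg and 10,000/2,500-fold for 0.3 mg/kg. Samples came from female CD-1 mice (6–10 weeks) killed 6 or 7 days after a single intravenous LNP dose, usually 0.1 mg/kg.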

Data set [1] can be described thus: pKa measurement of unformulated amine lipid (fluorescence, method of Jayaraman et al.). The format is physicochemical. The settings on record: 100 μM in 0.1 M phosphate buffer, pH 2.0-12.0. The procedure:
The pKa of each amine lipid was determined according to the method in Jayaraman, et al. (Angewandte Chemie, 2012) with the following adaptations. […] Lipid was diluted to 100 μM in 0.1 M phosphate buffer (Boston Bioproducts) where the pH ranged from 2.0-12.0. Fluorescence intensity was measured using excitation and emission wavelengths of 321 nm and 448 nm.

Data set [2] is described as follows: Dynamic light scattering of LNPs: Z-average diameter, number average diameter, PDI. The format is physicochemical. The settings on record: LNP, sg:mRNA 1:1, N/P about 6, 50/9/38/3; Table 2, Experiments 2-20. The method in brief: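 Values reported are the Z-average (intensity-weighted mean size), the number-average diameter and the PDI (spread of sizes, 0 = fully uniform). All three came from dynamic light scattering of LNP preparations after dilution in PBS.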

The nature of data set [3]: RNA encapsulation efficiency of LNPs (Ribogreen fluorescence assay). Format: physicochemical. The settings on record: LNP, sg:mRNA 1:1, N/P about 6, amine lipid/DSPC/cholesterol/PEG-2k-DMG 50/9/38/3; Table 2, Experiments 2-20. An outline of the steps:
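Encapsulation efficiency is (Total RNA − Free RNA)/Total RNA. Free RNA was quantified by RiboGreen fluorescence (488/525 nm, ~10 min, RT, dark) in plain TE buffer; total RNA was quantified after LNP lysis with 0.2% Triton X-100, both against RNA standard curves.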

Take `CCCCCCCCCCOC(=O)CCCCCCCC(=O)OCC(COC(=O)CCCN(CC)CC)COC(=O)CCC(OCCCCCCCC)OCCCCCCCC` (stereo not shown) [Compound 75, 1-(3-((4,4-bis(octyloxy)butanoyl)oxy)-2-(((4-(diethylamino)butanoyl)oxy)methyl)propyl) 9-decyl nonanedioate]: in the data set on Transthyretin (TTR), the “Serum TTR % TSS” value worked out at 68% and the “Serum TTR” value was 623 µg/mL. This molecule also came in with a pKa in data set [1] of 6.45. Besides, in data set [2], the “Number mean (nm)” value came to 92.74 nm, the PDI stood at 0.020 and the “Z-avg (nm)” value is 110.9 nm. The “Encapsulation (%)” value in data set [3] is listed as 98%.
For `CCCCCCCCCCOC(=O)CCCCCCCC(=O)OCC(COC(=O)CCCCCC(=O)OC(CCCCCCCC)CCCCCCCC)COC(=O)OCCCN(CC)CC` (stereo not shown) [Compound 76, 1-decyl 9-(3-(((3-(diethylamino)propoxy)carbonyl)oxy)-2-(((7-(heptadecan-9-yloxy)-7-oxoheptanoyl)oxy)methyl)propyl) nonanedioate], in the data set with Transthyretin (TTR), the “Serum TTR % TSS” value is listed as 81% and the “Serum TTR” value was determined as 735 µg/mL. Also, in data set [1], the pKa is 6.17. Moreover, in data set [2], the “Number mean (nm)” value is given as 80.2 nm, the PDI stood at 0.097 and the “Z-avg (nm)” value worked out at 111.8 nm. Besides, the “Encapsulation (%)” value in data set [3] turned out to be 99%.
For the molecule `CCCCCCCCCCOC(=O)CCCCCCCC(=O)OCC(COC(=O)CCCC(=O)OC(CCCCCCCC)CCCCCCCC)COC(=O)OCCCN(CC)CC` (stereo not shown) [Compound 77, 1-decyl 9-(3-(((3-(diethylamino)propoxy)carbonyl)oxy)-2-(((5-(heptadecan-9-yloxy)-5-oxopentanoyl)oxy)methyl)propyl) nonanedioate], in the data set with Transthyretin (TTR), the “Serum TTR % TSS” value stood at 53% and the “Serum TTR” value is 478 µg/mL. Besides, the pKa in data set [1] came out at 6.16. In data set [2], the “Number mean (nm)” value was determined as 85.4 nm, the PDI amounted to 0.006 and the “Z-avg (nm)” value came to 101.8 nm. In addition, the “Encapsulation (%)” value in data set [3] worked out at 99%.
As to `CCCCCCCCCCOC(=O)CCCCCCCC(=O)OCC(COC(=O)CCC(OCCCCCCCCC)OCCCCCCCCC)COC(=O)OCCCN(CC)CC` (stereo not shown) [Compound 79, 1-(3-((4,4-bis(nonyloxy)butanoyl)oxy)-2-((((3-(diethylamino)propoxy)carbonyl)oxy)methyl)propyl) 9-decyl nonanedioate], in the data set on Transthyretin (TTR), the “Serum TTR % TSS” value is recorded as 39% and the “Serum TTR” value is 351 µg/mL. In data set [1], the pKa was found to be 6.13. In data set [2], the “Number mean (nm)” value turned out to be 83.64 nm, the PDI is 0.019 and the “Z-avg (nm)” value amounted to 99.24 nm. In addition, the “Encapsulation (%)” value in data set [3] was found to be 99%.
On to `CCCCCCCCCCOC(=O)CCCCCCCC(=O)OCC(COC(=O)CCCCCC(=O)OC(CCCCCCCC)CCCCCCCC)COC(=O)OCCC1CCCN1C` (stereo not shown) [Compound 80, 1-decyl 9-(3-((7-(heptadecan-9-yloxy)-7-oxoheptanoyl)oxy)-2-((((2-(1-methylpyrrolidin-2-yl)ethoxy)carbonyl)oxy)methyl)propyl) nonanedioate], for which, in the data set with Transthyretin (TTR), the “Serum TTR % TSS” value was 116% and the “Serum TTR” value came to 873 µg/mL. This molecule also registered a pKa in data set [1] of 6.21. Also, in data set [2], the “Number mean (nm)” value was found to be 87.3 nm, the PDI was 0.016 and the “Z-avg (nm)” value is recorded as 105.8 nm. In addition, the “Encapsulation (%)” value in data set [3] came to 98%.
For `CCCCCCCCCCOC(=O)CCCCCCCC(=O)OCC(COC(=O)CCCCCC(=O)OC(CCCCCCCC)CCCCCCCC)COC(=O)CCCN(C)C` (stereo not shown) [Compound 82, 1-decyl 9-(3-((4-(dimethylamino)butanoyl)oxy)-2-(((7-(heptadecan-9-yloxy)-7-oxoheptanoyl)oxy)methyl)propyl) nonanedioate], in the data set with Transthyretin (TTR), the “Serum TTR % TSS” value is reported as 126% and the “Serum TTR” value worked out at 953 µg/mL. This molecule yielded a pKa in data set [1] of 6.31. Further, in data set [2], the “Number mean (nm)” value is 94.01 nm, the PDI is listed as 0.038 and the “Z-avg (nm)” value was 117.5 nm. Further, the “Encapsulation (%)” value in data set [3] was 98%.
For the molecule `CCCCCC/C=C\COC(=O)CCCCCCCC(=O)OCC(COC(=O)CCC(OCCCCCCCCC)OCCCCCCCCC)COC(=O)OCCCN(CC)CC` (stereo not shown) [Compound 83, (Z)-1-(3-((4,4-bis(nonyloxy)butanoyl)oxy)-2-((((3-(diethylamino)propoxy)carbonyl)oxy)methyl)propyl) 9-(non-2-en-1-yl) nonanedioate], in the data set with Transthyretin (TTR), the “Serum TTR % TSS” value worked out at 54% and the “Serum TTR” value was 488 µg/mL. Further, the pKa in data set [1] came out at 6.16. Moreover, in data set [2], the “Number mean (nm)” value amounted to 74.41 nm, the PDI is reported as 0.009 and the “Z-avg (nm)” value turned out to be 89.55 nm. Further, the “Encapsulation (%)” value in data set [3] is on record as 99%.
As for `CCCCCC/C=C\COC(=O)CCCCCCCC(=O)OCC(COC(=O)CCC(OCCCCCCC)OCCCCCCC)COC(=O)OCCCN(CC)CC` (stereo not shown) [Compound 84, (Z)-1-(3-((4,4-bis(heptyloxy)butanoyl)oxy)-2-((((3-(diethylamino)propoxy)carbonyl)oxy)methyl)propyl) 9-(non-2-en-1-yl) nonanedioate], in the data set on Transthyretin (TTR), the “Serum TTR % TSS” value came out at 71% and the “Serum TTR” value amounted to 648 µg/mL. Also, in data set [1], the pKa amounted to 6.16. For the same molecule, in data set [2], the “Number mean (nm)” value is 86.08 nm, the PDI is 0.086 and the “Z-avg (nm)” value was 114.2 nm. Besides, the “Encapsulation (%)” value in data set [3] is given as 95%.
For the molecule `CCCCCC/C=C\COC(=O)CCCCCCCC(=O)OCC(COC(=O)CCCCCC(=O)OC(CCCCCCCC)CCCCCCCC)COC(=O)OCCCN(CC)CC` (stereo not shown) [Compound 85, (Z)-1-(3-(((3-(diethylamino)propoxy)carbonyl)oxy)-2-(((7-(heptadecan-9-yloxy)-7-oxoheptanoyl)oxy)methyl)propyl) 9-(non-2-en-1-yl) nonanedioate], in the data set on Transthyretin (TTR), the “Serum TTR % TSS” value is 84% and the “Serum TTR” value came out at 762 µg/mL. In addition, the pKa in data set [1] came out at 6.16. In data set [2], the “Number mean (nm)” value came out at 81.21 nm, the PDI is listed as 0.006 and the “Z-avg (nm)” value worked out at 97.86 nm. Further, the “Encapsulation (%)” value in data set [3] is 99%.
For the molecule `CCCCCC/C=C\COC(=O)CCCCCCCC(=O)OCC(COC(=O)CCCC(=O)OC(CCCCCCCC)CCCCCCCC)COC(=O)OCCCN(CC)CC` (stereo not shown) [Compound 86, (Z)-1-(3-(((3-(diethylamino)propoxy)carbonyl)oxy)-2-(((5-(heptadecan-9-yloxy)-5-oxopentanoyl)oxy)methyl)propyl) 9-(non-2-en-1-yl) nonanedioate], in the data set on Transthyretin (TTR), the “Serum TTR % TSS” value was found to be 64% and the “Serum TTR” value was 582 µg/mL. In addition, the pKa in data set [1] amounted to 6.16. Further, in data set [2], the “Number mean (nm)” value is 81.23 nm, the PDI is recorded as 0.016 and the “Z-avg (nm)” value stood at 99.01 nm. For the same molecule, the “Encapsulation (%)” value in data set [3] is given as 98%.
For the molecule `CCCCCCCCCCOC(=O)CCCCCCCC(=O)OCC(COC(=O)CCCC(=O)OC(CCCCCCCC)CCCCCCCC)COC(=O)OCCC1CCCN1C` (stereo not shown) [Compound 87, 1-decyl 9-(3-((5-(heptadecan-9-yloxy)-5-oxopentanoyl)oxy)-2-((((2-(1-methylpyrrolidin-2-yl)ethoxy)carbonyl)oxy)methyl)propyl) nonanedioate], in the data set on Transthyretin (TTR), the “Serum TTR % TSS” value is on record as 68% and the “Serum TTR” value came out at 511 µg/mL. The pKa in data set [1] worked out at 6.52. Also, in data set [2], the “Number mean (nm)” value was determined as 81.57 nm, the PDI came to 0.006 and the “Z-avg (nm)” value was 98.47 nm. The “Encapsulation (%)” value in data set [3] came to 98%.
Consider `CCCCCCCCCCOC(=O)CCCCCCCC(=O)OCC(COC(=O)CCCC(=O)OC(CCCCCCCC)CCCCCCCC)COC(=O)NCCN(CC)CC` (stereo not shown) [Compound 88, 1-decyl 9-(3-(((2-(diethylamino)ethyl)carbamoyl)oxy)-2-(((5-(heptadecan-9-yloxy)-5-oxopentanoyl)oxy)methyl)propyl) nonanedioate], for which, in the data set with Transthyretin (TTR), the “Serum TTR % TSS” value came out at 77% and the “Serum TTR” value was 582 µg/mL. Also, the pKa in data set [1] was 6.84. Also, in data set [2], the “Number mean (nm)” value was found to be 99.51 nm, the PDI stood at 0.011 and the “Z-avg (nm)” value is 117.1 nm. The “Encapsulation (%)” value in data set [3] is 98%.
For the molecule `CCCCCCCCCCOC(=O)CCCCCCCC(=O)OCC(COC(=O)CCCC(=O)OC(CCCCCCCC)CCCCCCCC)COC(=O)CCCN(C)C` (stereo not shown) [Compound 89, 1-decyl 9-(3-((4-(dimethylamino)butanoyl)oxy)-2-(((5-(heptadecan-9-yloxy)-5-oxopentanoyl)oxy)methyl)propyl) nonanedioate], in the data set with Transthyretin (TTR), the “Serum TTR % TSS” value amounted to 102% and the “Serum TTR” value was 774 µg/mL. This molecule registered a pKa in data set [1] of 6.79. Moreover, in data set [2], the “Number mean (nm)” value was 89.4 nm, the PDI is recorded as 0.008 and the “Z-avg (nm)” value came to 107.3 nm. In addition, in data set [3], the “Encapsulation (%)” value was 95%.
